According to patent US11180462B2, “Microbiocidal oxadiazole derivatives” (SYNGENTA PARTICIPATIONS AG, priority 2015, dated 2021):

How the values were obtained:
[1] = system: Puccinia recondita f. Sp. Tritici; test: Fungicidal activity against Puccinia recondita f. sp. tritici / wheat / leaf disc preventative (brown rust); format: in vivo; conditions: foliar, 200 ppm in the applied formulation, wheat leaf segments, preventative, compared to untreated control leaf disks, read-out: disease control
Summary of the method: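 200 ppm spray on wheat cv. Kanzler leaf segments; spore inoculation +1 day; 19° C., 75% rh, 12 h/12 h light cycle; single rating of % control vs untreated at 7 to 9 days.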

[2] = system: Puccinia recondita f. Sp. Tritici; test: Fungicidal activity against Puccinia recondita f. sp. tritici / wheat / leaf disc curative (brown rust); format: in vivo; conditions: foliar, 24 h, 200 ppm in the applied formulation, wheat leaf segments, curative (applied 1 day after inoculation), compared to untreated control leaf disks, read-out: disease control
Summary of the method: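 Wheat cv. Kanzler leaf segments on agar, inoculated with rust spore suspension, kept dark at 19° C and 75% RH; formulated compound sprayed 1 day post-inoculation. Incubated 19° C, 75% RH, 12 h light/12 h dark; percent disease control vs untreated scored 6 to 8 days after application.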

Phakopsora Pachyrhizi = test: Fungicidal activity against Phakopsora pachyrhizi / soybean / leaf disc preventative (Asian soybean rust); format: in vivo; conditions: foliar, 200 ppm in the applied formulation, soybean leaf disks, compared to untreated control leaf disks, read-out: disease control
Summary of the method: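 Scored 12 to 14 days post-application as percent control relative to untreated check discs, rust spores were sprayed under the disc one day after compound treatment. Incubation: 20°C, 75% rh, first 24–36 h in darkness, then 12 h daily light; discs kept on water agar.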

[3] = system: Glomerella lagenarium (Colletotrichum lagenarium); test: Fungicidal activity against Glomerella lagenarium (Colletotrichum lagenarium) liquid culture / cucumber / preventative (anthracnose); format: cell-based; conditions: Colletotrichum orbiculare; 20 ppm in the applied formulation; liquid culture (PDB), growth inhibition measured photometrically after 3 to 4 days; compared to untreated control; read-out: disease control
Summary of the method: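 Percent activity against the untreated check was derived from photometric growth measurements made 2 to 7 days after conidia in potato dextrose broth were combined with compound at 20 ppm. Cultures were kept dark at 24 °C and 96% humidity.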

C=CCN(Cc1ccc(-c2noc(C(F)(F)F)n2)cc1)C(=O)C1CC1F (stereo not drawn) [Compound 1.491, N-allyl-2-fluoro-N-[[4-[5-(trifluoromethyl)-1,2,4-oxadiazol-3-yl]phenyl]methyl]-cyclopropane-carboxamide]
≥ 80%: pest or weed control at 200 ppm [1] | pest or weed control at 200 ppm [2] | pest or weed control at 200 ppm (Phakopsora Pachyrhizi) | inhibition of growth at 20 ppm [3]

CCN(Cc1ccc(-c2noc(C(F)(F)F)n2)cc1)C(=O)C1CC1C (stereo not drawn) [Compound 1.500, N-ethyl-2-methyl-N-[[4-[5-(trifluoromethyl)-1,2,4-oxadiazol-3-yl]phenyl]methyl]-cyclopropane-carboxamide]
≥ 80%: pest or weed control at 200 ppm [1] | pest or weed control at 200 ppm [2] | pest or weed control at 200 ppm (Phakopsora Pachyrhizi) | inhibition of growth at 20 ppm [3]

CC(C)C(=O)N(O)Cc1ccc(-c2noc(C(F)(F)F)n2)cc1 [Compound 1.752, N-hydroxy-2-methyl-N-[[4-[5-(trifluoromethyl)-1,2,4-oxadiazol-3-yl]phenyl]methyl]-propanamide]
≥ 80%: pest or weed control at 200 ppm [1] | pest or weed control at 200 ppm [2] | pest or weed control at 200 ppm (Phakopsora Pachyrhizi) | inhibition of growth at 20 ppm [3]

COCCN(Cc1ccc(-c2noc(C(F)(F)F)n2)cc1)C(=O)C1(C)COC1 [Compound 1.351, N-(2-methoxyethyl)-3-methyl-N-[[4-[5-(trifluoromethyl)-1,2,4-oxadiazol-3-yl]phenyl]methyl]-oxetane-3-carboxamide]
≥ 80%: pest or weed control at 200 ppm [1] | pest or weed control at 200 ppm [2] | pest or weed control at 200 ppm (Phakopsora Pachyrhizi) | inhibition of growth at 20 ppm [3]

C=CCN(Cc1ccc(-c2noc(C(F)(F)F)n2)cc1)C(=O)CC [Compound 1.477, N-allyl-N-[[4-[5-(trifluoromethyl)-1,2,4-oxadiazol-3-yl]phenyl]methyl]-propanamide]
≥ 80%: pest or weed control at 200 ppm [1] | pest or weed control at 200 ppm [2] | pest or weed control at 200 ppm (Phakopsora Pachyrhizi) | inhibition of growth at 20 ppm [3]

CON(Cc1ccc(-c2noc(C(F)(F)F)n2)cc1)C(=O)C(C)(C)OC [Compound 1.779, N,2-dimethoxy-2-methyl-N-[[4-[5-(trifluoromethyl)-1,2,4-oxadiazol-3-yl]phenyl]methyl]-propanamide]
≥ 80%: pest or weed control at 200 ppm [1] | pest or weed control at 200 ppm [2] | pest or weed control at 200 ppm (Phakopsora Pachyrhizi) | inhibition of growth at 20 ppm [3]

C=C(C)C(=O)N(CCOC)Cc1ccc(-c2noc(C(F)(F)F)n2)cc1 [Compound 1.346, N-(2-methoxyethyl)-2-methyl-N-[[4-[5-(trifluoromethyl)-1,2,4-oxadiazol-3-yl]phenyl]methyl]prop-2-enamide]
≥ 80%: pest or weed control at 200 ppm [1] | pest or weed control at 200 ppm [2] | pest or weed control at 200 ppm (Phakopsora Pachyrhizi) | inhibition of growth at 20 ppm [3]

CCON(Cc1ccc(-c2noc(C(F)(F)F)n2)cc1)C(=O)COC [Compound 1.567, N-ethoxy-2-methoxy-N-[[4-[5-(trifluoromethyl)-1,2,4-oxadiazol-3-yl]phenyl]methyl]-acetamide]
≥ 80%: pest or weed control at 200 ppm [1] | pest or weed control at 200 ppm [2] | pest or weed control at 200 ppm (Phakopsora Pachyrhizi) | inhibition of growth at 20 ppm [3]

C=C(C)C(=O)N(Cc1ccc(-c2noc(C(F)(F)F)n2)cc1)CC1CC1 [Compound 1.229, N-(cyclopropylmethyl)-2-methyl-N-[[4-[5-(trifluoromethyl)-1,2,4-oxadiazol-3-yl]phenyl]methyl]-prop-2-enamide]
≥ 80%: pest or weed control at 200 ppm [1] | pest or weed control at 200 ppm [2] | pest or weed control at 200 ppm (Phakopsora Pachyrhizi) | inhibition of growth at 20 ppm [3]
